In PMC7178883, “1,2,4-Triazole-based anticonvulsant agents with additional ROS scavenging activity are effective in a model of pharmacoresistant epilepsy” (Journal of Enzyme Inhibition and Medicinal Chemistry, 2020):
pKi: −log10 of the molar value. Values after ≈ are worked out from the molar mass of the structure shown. Read-outs that look alike come from different tables or passages of the source.

Columns and labels:
[1] = CUPRAC assay; settings: pH 7.0, 450 nm
Protocol: Cupric reducing antioxidant capacity (CUPRAC) assay was performed according to the method by Apak et al.[20] with slight modifications. The CUPRAC reagent was prepared by mixing equal volume of CuCl2 (10 mM), neocuproine solution (7.5 mM), and acetate buffer (pH = 7.0). Subsequently, 50 µl of TP-10, TP-315, TP-427 (0.002–0.4 mg/ml) and 150 µl of CUPRAC reagent were pipetted into each well of 96-well plate (Nunc, Roskilde, Denmark). After pipetting, the plate was shaken for 5 min and then incubated for 25 min in the dark at room temperature. The absorbance of the solutions was read at 450 nm using a microplate reader (Epoch, BioTek Instruments, Inc., Winooski, VT, USA). At least six tests were performed for each concentration of the investigated compounds. The results were expressed as the IC50 (µg/ml) ± SD.

[2] = test system: U-87 MG cells; assay: Cell viability, MTT assay; assay type: cell-based, human; settings: 10 µg/ml, 24 h
Protocol: Viability of glioblastoma cells U-87 MG (ATCC HTB-14) exposed to a fixed dose of 10 µg/ml of TP-10, TP-315, and TP-427 was measured using MTT assay. Stock solutions of the investigated compounds in DMSO were prepared in the concentration of 50 mg/ml. The cells were cultured at 37 °C in a 5% CO2 atmosphere using Eagle’s Minimum Essential Medium (EMEM) supplemented with 10% foetal bovine serum (FBS), 100 U/ml of penicillin, and […] of streptomycin. Suspension of U-87 MG cells at a density of 1 × 10^5 cells/ml was placed in 96-well plate (100 µl in each well) and incubated for 24 h. On the day of the experiment, the medium was removed from wells and replaced with medium containing a fixed concentration (10 µg/ml) of the respective 1,2,4-triazole derivative. After 24 h of incubation, 15 µl of MTT solution (5 mg/mL in PBS) was added to each well and the microplates were incubated for the next 3 h. Crystals of formazan formed in the metabolically active cells were solubilised with 10% SDS solution (100 µl) during overnight incubation and then the absorbance of dissolved formazan was measured at λ = 570 nm using a microplate reader (Epoch, BioTek Instruments, Inc., Winooski, VT, USA). The viability of cells treated with TP-10, TP-315, or TP-427 was expressed as the % of the viability of control cells (i.e. cells incubated without respective compounds). The experiments were run in triplicate and repeated three times. Sample observations and image capturing were performed using Olympus CKX53 microscope coupled with XM10 digital camera (Olympus).

[3] = test system: U-87 MG cells; assay: Total ROS activity assay (flow cytometry); assay type: cell-based, human; settings: 10 µg/ml, 24 h; for ROS positive cells: control 90.2%
Protocol: Total ROS activity was measured using Intracellular Total ROS Activity Assay Kit (ImmunoChemistry Technologies, Bloomington, MN, USA). After 24 h of incubation of glioblastoma cells U-87 MG (ATCC, Manassas, VA, USA) with the test compounds in concentration 10 µg/ml, the medium was removed, the cells were washed twice with the cold PBS solution and the Assay Buffer (provided by the kit manufacturer) was added. Then, cells (at a density of 1 × 10^6 cells/ml) were treated with 10 µl of Total ROS green reagent and incubated for 1 h at 37 °C in a CO2 incubator. After incubation, the cells were subjected to a rinsing procedure using the Assay Buffer. Cells were suspended in 500 µl of the Assay Buffer and analysed using a flow cytometer (BD FACSCanto II flow cytometer) and FACSDiva software (both from BD Biosciences Systems, San Jose, CA, USA).

[4] = test system: U-87 MG cells; assay: Mitochondrial membrane potential, JC-1 dye (flow cytometry); assay type: cell-based, human; settings: 10 μg/ml, 24 h, control 5.0%
Protocol: Mitochondrial membrane potential changes (ΔMMP) were assessed using the JC-1 MitoScreen Kit (BD Biosciences Systems, San Jose, CA, USA) as described previously. Sample of 10^6 cells/ml was suspended in a buffer mixture and incubated for 15 min at 37 °C with JC-1 dye provided by the kit manufacturer. Subsequently, the cells were washed and resuspended in a buffer. Samples prepared in this way were subjected to cytometric analysis using a cytometer BD FACSCanto II and FACSDiva software (both from BD Biosciences Systems, San Jose, CA, USA).

[5] = biological target: T1, hCA II (Homo sapiens, UniProt P00918); assay: Carbonic anhydrase inhibition, stopped flow CO2 hydration; assay type: biochemical
T1 construct: made in house
Protocol: Carbonic anhydrase catalysed CO2 hydration activity was measured using an Applied Photophysics stopped-flow spectrometer. […] The uncatalyzed rates were determined in the same manner and subtracted from the total observed rates. Stock solutions of inhibitor (0.1 mM) were prepared in distilled-deionized water and dilutions up to 0.01 nM were done thereafter with the assay buffer. […] The inhibition constants were obtained by non-linear least-squares methods using PRISM 3 and the Cheng–Prusoff equation and represent the mean from at least three different determinations. All CA isoforms were recombinant ones obtained in-house[21]^,[22].

[6] = test system: human recombinant acetylcholinesterase (hrAChE); assay: AChE inhibition, Ellman method; assay type: biochemical; settings: 500 µM
Protocol: (§1) The inhibition ability of tested compounds against human recombinant acetylcholinesterase (hrAChE) and human recombinant butyrylcholinesterase (hrBChE) was determined by standard Ellman method adapted for 96-well plate. The reaction mixture contained 10 µL of hrAChE (70 ng/mL protein final concentration) or hrBChE (220 ng/mL protein final concentration), 10 µL of tested compound (1, 10, 100, and 500 µM final concentration), 20 µL of 5,5′-dithiobis-2-nitrobenzoic acid (DTNB; 500 µM final concentration), and 60 µL of 20 mM Na-phosphate buffer (pH 7.4). The mixture was pre-incubated at 37 °C for 15 min and subsequently 10 µL substrate acetylthiocholine iodide (ATChI) or butyrylthiochiline iodide (BTChI) was added to the final concentration of 1000 µM[24]. The final volume of reaction mixture was 100 µL. The product formed during the reaction (5-thio-2-nitrobenzoic acid, TNB) was determined by measurement of its absorbance at 436 nm. The catalytic activity was evaluated as amount of product (%) formed by enzyme after 10 min of mixture incubation at 37 °C.

[7] = test system: human recombinant butyrylcholinesterase (hrBChE); assay: BChE inhibition, Ellman method; assay type: biochemical; settings: 500 µM
Protocol: as §1

[8] = test system: generalised tonic-clonic seizures (MES test); design: method as in PMID 30594731, PMID 23291122, PMID 25226229, PMID 25090118; settings: Figure 1, cited from earlier work; for ED50: MES test
[9] = 1 h incubation, read-out: KI hCA II (1h)
[10] = 6 h incubation, read-out: KI hCA II (6h)
[11] = incubation time not given, read-out: Ki CA II

SMILES | IC50 ± SD, CUPRAC [1] | Relative viability vs. untreated cells [2] | ROS negative cells [3] | ROS positive cells [3] | cells with low mitochondrial membrane potential (ΔΨm) [4] | pKi [5, 9] | pKi [5, 10] | decrease of hrAChE activity [6] | hrBChE activity [7] | interaction with VPA [8] | ED50 [8] | pKi [5, 11]
Cc1ccc(-n2c(-c3cccc(Cl)c3)n[nH]c2=S)cc1 [TP-10, 5-(3-chlorophenyl)-4-(4-methylphenyl)-2,4-dihydro-3H-1,2,4-triazole-3-thione] | 16.04 ± 0.61 mg/L (≈ 53.1 µM) | 99.16 ± 3.92% | 11.5% | 88.5% | 8.0% | 4.13 | < 4.00 | ~54% | 84% | synergism with VPA | 57.0 mg/kg | 
CCCCCCn1c(-c2cccc(Cl)c2)n[nH]c1=S [TP-315, 5-(3-chlorophenyl)-4-hexyl-2,4-dihydro-3H-1,2,4-triazole-3-thione] | 22.28 ± 1.03 mg/L (≈ 75.3 µM) | 98.82 ± 2.84% | 14.1% | 85.9% | 9.9% | < 4.00 | < 4.00 | ~66% | 59% |  | 47.6 mg/kg | < 4.00
CCCCCCn1c(Cc2cccc(Cl)c2)n[nH]c1=S [TP-427, 5-(3-chlorobenzyl)-4-hexyl-2,4-dihydro-3H-1,2,4-triazole-3-thione] | 30.92 ± 1.11 mg/L (≈ 99.8 µM) | 98.53 ± 4.18% | 20.9% | 79.1% | 16.5% | < 4.00 | < 4.00 | ~61% | 78% | synergism with VPA | 72.1 mg/kg | < 4.00
